Assay results: US7964647B2 (Mutual Pharmaceutical Company, Inc., priority 2007, dated 2011)

Test system: patients with acute gout flare (acute gouty arthritic attack)
Experiment: Multicenter, randomized, double-blind, placebo-controlled dose comparison study in acute gout flare: efficacy (target joint pain)
Type: in vivo, human
Settings: for Difference between treatment groups in mean change from baseline in target joint pain score at 24 hours, High vs. Low / Difference between treatment groups in mean change from baseline in target joint pain score at 24 hours, High vs. Placebo / Difference between treatment groups in mean change from baseline in target joint pain score at 24 hours, Low vs. Placebo: LOCF, ITT
Excerpt: A sufficient number of patients are screened to enroll and randomize 300 patients (100 patients per treatment group) who meet the criteria of the American College of Rheumatology (ACR) for acute arthritis of gout.
Efficacy assessment will be made based on patient and Investigator inputs. Patients will record pain severity and sleep interference on a study diary. The severity of pain for each joint affected by the acute gouty arthritic attack will be rated on an 11-point pain intensity numerical rating scale (PI-NRS) that ranges from 0 (“no pain”) to 10 (“worst possible pain”). […] Investigators will provide clinical assessments in the clinic at all Post-Flare Phase study visits, and at medically necessary intervening visits. For these assessments, each of the patient's joints affected by the acute gouty arthritic attack will be examined and signs and symptoms of inflammation will be rated (erythema [absent, present, or not assessable], swelling [0, “none” to 3, “severe”], and tenderness to touch [0, “none” to 3, “severe”]).
The target joint is identified during data analysis as that joint affected by the acute gout flare with the highest baseline pain score on the patient diary. Ties among maximum joint scores for an individual are resolved by random selection.
The secondary efficacy variables are assessments of magnitude of pain reduction, time to response, time to complete pain relief, and interference with sleep as recorded on patient diaries by the patient. Signs and symptoms of inflammation per Investigator's clinical assessments of the target joint are evaluated. Time to drop out (use of rescue medications) is also evaluated. Investigator global assessment of response to treatment is assessed.
Analyses will also be made on an Evaluable patient population with an Evaluable patient defined as one who, in addition to being included in the PP population, completed the randomized treatment course. The ITT population will be used for the evaluation of safety.
Statistical tests for efficacy analysis are two-tailed with an alpha significance level of 0.05.
The sensitivity to alternate definitions of response (based both on magnitude of reduction from baseline as well as time point) will be evaluated as secondary endpoints. As additional sensitivity analyses, these tests will also be repeated for the PP and Evaluable populations if the sample sizes differ from the overall ITT population by more than 10%.
Change in pain intensity, interference with sleep, time to 50% reduction in pain, and time to complete pain relief will be analyzed as continuous variables using analysis of covariance with study site, treatment group, and site by treatment interaction as independent variables for change in pain intensity and interference with sleep, with baseline score as a covariate. For the Investigator's clinical assessment of inflammation (erythema, swelling, and tenderness to touch) and Investigator's global assessment of response to treatment, the treatment groups will be compared using the Mantel-Haenszel chi-square test stratified on study site.

[1] = Early treatment start (within 4 hours)
[2] = Early treatment start (within 4 hours), High dose 4.8 mg
[3] = Early treatment start (within 4 hours), Low dose 1.8 mg
[4] = Hour 24, High dose 4.8 mg, n = 51
[5] = Hour 24, Low dose 1.8 mg, n = 74
[6] = Hour 32, High dose 4.8 mg, n = 51
[7] = Hour 32, Low dose 1.8 mg, n = 74
[8] = Late treatment start (after 4 hours)
[9] = Late treatment start (after 4 hours), High dose 4.8 mg
[10] = Late treatment start (after 4 hours), Low dose 1.8 mg

COc1cc2c(c(OC)c1OC)-c1ccc(OC)c(=O)cc1[C@@H](NC(C)=O)CC2 [Colchicine, (−)-N-[(7S,12aS)-1,2,3,10-tetramethoxy-9-oxo-5,6,7,9-tetrahydrobenzo[a]heptalen-7-yl]-acetamide]
Difference between treatment groups in mean change from baseline in target joint pain score at 24 hours, High vs. Low [1]: 0.2
Difference between treatment groups in mean change from baseline in target joint pain score at 24 hours, High vs. Placebo [1]: −1.3
Difference between treatment groups in mean change from baseline in target joint pain score at 24 hours, Low vs. Placebo [1]: −1.5
Change from baseline in target joint pain score at 24 hours post first dose, Mean [2]: −2.0
Change from baseline in target joint pain score at 24 hours post first dose, Median [2]: −2.0
Change from baseline in target joint pain score at 24 hours post first dose, Mean [3]: −2.2
Change from baseline in target joint pain score at 24 hours post first dose, Median [3]: −2.0
Number of responders (>=50% reduction in target joint pain score, no rescue medication) at 24 hours post first dose (High (standard) dose 4.8 mg over 6 h, N = 52, ITT): 17 (32.7) N (%)
Number (%) of patients using rescue medication up to and including the 24-hour post first dose assessment (High dose 4.8 mg, N = 52): 18 (34.6) n (%)
Patients with >=0% improvement in target joint pain score at 24 hours post first dose (High dose 4.8 mg, N = 52): 52 (100.0%)
Patients with >=10% improvement in target joint pain score at 24 hours post first dose (High dose 4.8 mg, N = 52): 32 (61.5%)
Patients with >=20% improvement in target joint pain score at 24 hours post first dose (High dose 4.8 mg, N = 52): 29 (55.8%)
Patients with >=30% improvement in target joint pain score at 24 hours post first dose (High dose 4.8 mg, N = 52): 21 (40.4%)
Patients with >=40% improvement in target joint pain score at 24 hours post first dose (High dose 4.8 mg, N = 52): 21 (40.4%)
Patients with >=50% improvement in target joint pain score at 24 hours post first dose (High dose 4.8 mg, N = 52): 19 (36.5%)
Patients with >=60% improvement in target joint pain score at 24 hours post first dose (High dose 4.8 mg, N = 52): 15 (28.8%)
Patients with >=70% improvement in target joint pain score at 24 hours post first dose (High dose 4.8 mg, N = 52): 10 (19.2%)
Patients with >=80% improvement in target joint pain score at 24 hours post first dose (High dose 4.8 mg, N = 52): 9 (17.3%)
Patients with >=90% improvement in target joint pain score at 24 hours post first dose (High dose 4.8 mg, N = 52): 6 (11.5%)
Patients with >=100% improvement in target joint pain score at 24 hours post first dose (High dose 4.8 mg, N = 52): 6 (11.5%)
Total Pain Relief (TOTPAR) based on all target joint pain scores, Mean [4]: 20.9
Total Pain Relief (TOTPAR) based on all target joint pain scores, Median [4]: 11.5
Total Pain Relief (TOTPAR) based on all target joint pain scores, Mean [5]: 30.5
Total Pain Relief (TOTPAR) based on all target joint pain scores, Median [5]: 23.0
Total Pain Relief (TOTPAR) based on all target joint pain scores, Mean [6]: 31.9
Total Pain Relief (TOTPAR) based on all target joint pain scores, Median [6]: 27.5
Total Pain Relief (TOTPAR) based on all target joint pain scores, Mean [7]: 45.5
Total Pain Relief (TOTPAR) based on all target joint pain scores, Median [7]: 34.1
Difference between treatment groups in mean change from baseline in target joint pain score at 24 hours, High vs. Low [8]: 0.1
Difference between treatment groups in mean change from baseline in target joint pain score at 24 hours, High vs. Placebo [8]: −1.6
Difference between treatment groups in mean change from baseline in target joint pain score at 24 hours, Low vs. Placebo [8]: −1.6
Change from baseline in target joint pain score at 24 hours post first dose, Mean [9]: −2.3
Change from baseline in target joint pain score at 24 hours post first dose, Median [9]: −2.0
Change from baseline in target joint pain score at 24 hours post first dose, Mean [10]: −2.4
Change from baseline in target joint pain score at 24 hours post first dose, Median [10]: −2.5
Number of responders (>=50% reduction in target joint pain score, no rescue medication) at 24 hours post first dose (Low dose 1.8 mg over 1 h, N = 74, ITT): 28 (37.8) N (%)
Number (%) of patients using rescue medication up to and including the 24-hour post first dose assessment (Low dose 1.8 mg, N = 74): 23 (31.1) n (%)
Patients with >=0% improvement in target joint pain score at 24 hours post first dose (Low dose 1.8 mg, N = 74): 74 (100.0%)
Patients with >=10% improvement in target joint pain score at 24 hours post first dose (Low dose 1.8 mg, N = 74): 47 (63.5%)
Patients with >=20% improvement in target joint pain score at 24 hours post first dose (Low dose 1.8 mg, N = 74): 45 (60.8%)
Patients with >=30% improvement in target joint pain score at 24 hours post first dose (Low dose 1.8 mg, N = 74): 39 (52.7%)
Patients with >=40% improvement in target joint pain score at 24 hours post first dose (Low dose 1.8 mg, N = 74): 36 (48.6%)
Patients with >=50% improvement in target joint pain score at 24 hours post first dose (Low dose 1.8 mg, N = 74): 30 (40.5%)
Patients with >=60% improvement in target joint pain score at 24 hours post first dose (Low dose 1.8 mg, N = 74): 24 (32.4%)
Patients with >=70% improvement in target joint pain score at 24 hours post first dose (Low dose 1.8 mg, N = 74): 20 (27.0%)
Patients with >=80% improvement in target joint pain score at 24 hours post first dose (Low dose 1.8 mg, N = 74): 15 (20.3%)
Patients with >=90% improvement in target joint pain score at 24 hours post first dose (Low dose 1.8 mg, N = 74): 9 (12.2%)
Patients with >=100% improvement in target joint pain score at 24 hours post first dose (Low dose 1.8 mg, N = 74): 8 (10.8%)
Patients achieving at least 40% relief at 24 hrs post-first dose, regardless of pain rescue (FIG. 1) (low dose 1.8 mg): 49%
Proportion of patients rescued prior to 24 hours (low dose 1.8 mg): 28.4%
Proportion of patients with ≧50% pain reduction at 24 hrs without pain rescue (low dose 1.8 mg): 37.8%
Proportion of patients rescued prior to 24 hours (standard dose 4.8 mg): 34.6%
Proportion of patients with ≧50% pain reduction at 24 hrs without pain rescue (standard dose 4.8 mg): 32.7%
